# Experiments:
# [1] = test system: Oryctolagus sp.
# [2] = test system: Rattus norvegicus; conditions: for NOAEL: body weight
# [3] = test system: Anas platyrhynchos; conditions: reproductive; duration: 21 weeks; M; reproduction
# [4] = test system: Apis mellifera; conditions: acute, duration: 48 hours, mortality
# [5] = test system: Colinus virginianus
# [6] = test system: Cyprinodon variegatus; conditions: chronic/long-term; duration: 28 days; other
# [7] = test system: Folsomia candida; conditions: chronic/long-term; duration: 28 days
# [8] = test system: Oncorhynchus mykiss; conditions: acute; duration: 96 hours; mortality
# [9] = test system: Tagia sp.; conditions: chronic/long-term; duration: 56 days
# [10] = test system: Typhlodromus pyri; assay: LR50; higher = less toxic; conditions: not reported; duration: 7 days; mortality
SMILES,"NOAEL ([1]; developmental, development) [mg/kg-day]","NOAEL ([2]; chronic, duration: 2 years) [mg/kg-day]",NOEL [3] [mg/kg-day],LD50 ([4]; dermal) [µg/piece],"LD50 ([4]; oral, unspecified) [µg/piece]","LD50 ([5]; acute, oral, mortality) [mg/kg-day]","NOEL ([5]; reproduction developmental, duration: 23 weeks, reproduction) [mg/kg-day]",NOEC [6] [mg/L],NOEC [7] [mg/kg],LC50 [8] [mg/L],"NOAEL ([1]; reproduction developmental, mortality) [mg/kg-day]","LD50 ([2]; acute, oral, mortality) [mg/kg-day]",NOAEL ([2]; reproduction developmental) [mg/kg-day],"NOAEL ([2]; subchronic, duration: 90 days, oral) [mg/kg-day]",NOEC [9] [mg/kg],LR50 [10] [g/ha]
COC(=O)c1ccccc1S(=O)(=O)NC(=O)Nc1nc(C)nc(OC)n1 [Metsulfuron-methyl],25,22.4,,,,,,,,,,,,,,
COC(=O)c1ccccc1S(=O)(=O)NC(=O)N(C)c1nc(C)nc(OC)n1 [Tribenuron-methyl],,1,21,> 98.4,> 9.1,> 2250,21,11.9,30.8,738,20,> 5000,2,7,3.2,> 29.6

# Reference: EPA's ToxValDB 9.5 (doi:10.2903/j.efsa.2017.4912)
